In ChEMBL document CHEMBL3286214, “Tyrosinase inhibitory activity of a glucosylated hydroxystilbene in mouse melan-a melanocytes” (J Nat Prod, 2014):
The source made the active and inactive calls. No cut-off for these calls is given here.

How the values were obtained:
[1] = Suppression of TRP1 expression in mouse Melan-a cells using forskolin-supplemented medium at 60 to 120 uM incubated for 1 day by Western blotting analysis; assay type: functional, cell-based
Melan-a [2] = assay: Effect on tyrosinase maturation in mouse Melan-a cells assessed as immature Endo H-sensitive form measured in endoplasmic reticulum using forskolin-supplemented medium at 60 to 120 uM by Western blotting analysis; assay type: functional, cell-based
[3] = target: T1, Tyrosinase (Mus musculus) (UniProt P11344); assay: Inhibition of tyrosinase in mouse Melan-a cells after 3 days by L-DOPA oxidation assay in presence of 20 nM TPA melanogenesis inducer; assay type: cell-based
T1 sequence (whole entry): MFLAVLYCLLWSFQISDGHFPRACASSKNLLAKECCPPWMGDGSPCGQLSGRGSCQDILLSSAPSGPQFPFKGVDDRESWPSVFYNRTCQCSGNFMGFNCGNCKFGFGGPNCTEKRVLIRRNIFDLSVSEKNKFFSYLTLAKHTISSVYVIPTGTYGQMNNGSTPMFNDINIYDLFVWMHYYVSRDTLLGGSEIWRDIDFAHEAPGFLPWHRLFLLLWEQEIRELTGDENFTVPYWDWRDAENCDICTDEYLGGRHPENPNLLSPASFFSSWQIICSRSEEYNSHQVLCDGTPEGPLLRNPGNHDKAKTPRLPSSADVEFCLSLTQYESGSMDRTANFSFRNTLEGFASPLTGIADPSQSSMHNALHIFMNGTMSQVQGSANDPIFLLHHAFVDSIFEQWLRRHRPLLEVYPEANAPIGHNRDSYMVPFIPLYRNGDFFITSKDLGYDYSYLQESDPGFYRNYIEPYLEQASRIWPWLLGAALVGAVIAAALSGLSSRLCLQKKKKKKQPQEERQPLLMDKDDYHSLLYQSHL

[4] = target: T1, Tyrosinase (Mus musculus); assay: Inhibition of tyrosinase in mouse Melan-a cells after 3 days by L-DOPA oxidation assay in presence of 1 uM forskolin melanogenesis inducer; assay type: cell-based
[5] = target: T1, Tyrosinase (Mus musculus); assay: Inhibition of tyrosinase in mouse Melan-a cells assessed as decrease in L-DOPA Vmax by Lineweaver-Burk plot; assay type: cell-based
[6] = target: T1, Tyrosinase (Mus musculus); assay: Inhibition of tyrosinase in mouse Melan-a at 60 uM after 3 days by L-DOPA oxidation assay in presence of 1 uM forskolin melanogenesis inducer (reference value: 162%); design: scale not given: the % may be the effect or the level left
[7] = Suppression of MITF expression in mouse Melan-a cells using forskolin-supplemented medium incubated for 1 day by Western blotting analysis; assay type: functional, cell-based
Melan-a [8] = assay: Suppression of tyrosinase/TRP-1 complex formation in mouse Melan-a cells using forskolin-supplemented medium at 120 uM incubated for 3 days by Western blotting analysis; assay type: functional, cell-based
Tyrosinase [9] = target: T2, Tyrosinase (Mus musculus, UniProt P11344); assay: Inhibition of tyrosinase in mouse Melan-a cells assessed as decrease in L-DOPA Vmax at 240 uM by Lineweaver-Burk plot; assay type: cell-based
T2 sequence (P11344 whole entry): T1 sequence (whole entry)

Melan-a [10] = assay: Effect on tyrosinase localization in mouse Melan-a cells assessed as endoplasmic reticulum trapping at 60 uM incubated for 3 days by confocal immunofluorescence microscopy; assay type: functional, cell-based
Melan-a [11] = assay: Effect on tyrosinase localization in mouse Melan-a cells assessed as lysosome at 60 uM incubated for 3 days by confocal immunofluorescence microscopy; assay type: functional, cell-based
Tyrosinase [12] = target: T2, Tyrosinase; assay: Inhibition of tyrosinase in mouse Melan-a cells assessed as decrease in L-DOPA Vmax at 120 uM by Lineweaver-Burk plot; assay type: cell-based

| Structure (SMILES) | inhibition [1] | Activity (Melan-a [2]) | inhibition [3] | inhibition [4] | inhibition [5] | Activity [6] | inhibition [7] | inhibition (Melan-a [8]) | Ki (Tyrosinase [9]) | Activity (Melan-a [10]) | Activity (Melan-a [11]) | Ki (Tyrosinase [12]) |
| --- | --- | --- | --- | --- | --- | --- | --- | --- | --- | --- | --- | --- |
| OC[C@H]1O[C@@H](Oc2c(O)cc(O)cc2/C=C/c2ccc(O)cc2)[C@H](O)[C@@H](O)[C@@H]1O | inactive | inactive | Dose-dependent effect | Dose-dependent effect | Dose-dependent effect | 103% | Dose-dependent effect | Active | 2500 µM | inactive | inactive | 2800 µM |
| Oc1ccc(/C=C/c2cc(O)cc(O)c2)cc1 [RESVERATROL] | – | – | – | – | – | – | – | – | – | – | – | 2900 µM |
